One may read the EC50 as the concentration needed to bring the measured effect to its halfway point. A higher EC50 goes with a need for much substance. A word on the CC50: it is the concentration at which the toxic effect on the cells reaches its halfway point. A high value points to lower toxicity to the cells. Usually inhibition stands for the change of the read-out against control, counted positive when it falls. By melting point is commonly meant the temperature, or range, at which the solid turns liquid. As usually defined, the IC50 is the concentration at which inhibition is half-maximal. A higher IC50 goes with weaker potency in that assay.

Data set [1] concerns CLL cells. Briefly: MTT cytotoxicity assay, CLL cells. The class given is cell-based. The conditions noted are these: Homo sapiens, CLL cell, 72 hours, duplicate. How it is done:
The compounds of the invention were screened for CLL apoptotic activity by flow cytometry and a MTT-based assay. […] Primary PBL cells were acquired from the San Diego Blood Bank, San Diego, Calif. DiOC6 and PI dyes were obtained from Molecular Probes, Eugene, Oreg. Otherwise, unless indicated, all other reagents were purchased from Sigma (St. Louis, Mo.), and all test compounds were dissolved in sterile DMSO.
To get a more concise measure of the EC50 and confirm the flow cytometry results, a MTT (3-(4,5-dimethylthiazol-2-yl)-2,5-diphenyl tertrazolium bromide) assay using a procedure similar to that described by Mosmann, T., J Immunol Methods. 1983, 65, 55-63, was performed on all analogs. This method provided a larger number of datapoints so that a value for the EC50 could be extrapolated.
This assay was based on a procedure described by Mosmann. Briefly, in each well of a 96-well plate, 5×10^5 CLL cells were suspended in 100 μL of […] medium containing 10% FBS, 100 μg/mL penicillin, and 100 μg/mL streptomycin. Serial dilution of test compounds were then performed in duplicate across the plate to establish a concentration gradient from 0 to 1000 μM. After 72 hours of incubation at 37° C., the cells were incubated for 6 more hours in the presence of 20 μL of 5 mg/mL MTT (3-(4,5-dimethylthiazol-2-yl)-2,5-diphenyl tertrazolium bromide) before dissolving the resulting crystals in 50 μL lysis buffer (15% SDS, 15 mM HCl) overnight. Afterwards, the absorbance of each well was measured at […] in a Finstrument Microplate Reader, and the data was analyzed by Graphpad Prism Software, version 2.0b.
Background: Formazan colour is commonly taken as a measure of viable cells.

A short description of data set [2]: in vitro. The following applies: human, primary normal peripheral blood lymphocyte (PBL) cells.
Data set [3] has as its target T1, human recombinant COX-2 (Homo sapiens, UniProt P35354).
T1 construct: MDS Pharma Services (performed the assay); host or cells: Spodoptera frugiperda insect cells
The data set is described as follows: COX-2 enzyme assay (PGE2 enzyme immunoassay). Format: biochemical. The following applies: duplicate. How it is done: (§1) Compounds active in both the flow cytometry and MTT experiments were then tested for COX inhibition at 50 μM in an enzyme assay using COX-1 isolated from human platelets and human recombinant COX-2 purified from insect cells (Spodoptera frugiperda), as described by Riendeau et. al., Br J Pharmacol. 1997, 121, 105-117; Riendeau et. al., Can J Physiol Pharmacol. 1997, 75, 1088-1095; and Warner et. al. Proc Natl Acad Sci. 1999, 96, 7563-7568. These assays were performed by MDS Pharma Services, Bothell, Wash. The compounds were incubated in duplicate with COX-1 isolated from human platelets and human recombinant COX-2 purified from insect cells (Spodoptera frugiperda). Enzyme immunoassay quantification of prostaglandin E2 production from arachidonic acid in the presence (50 μM) and absence of test compounds was used to determine the percentage of COX inhibition.

Data set [4] concerns the target T2, COX-1 isolated from human platelets (Homo sapiens, UniProt P23219).
T2 construct: COX-1 isolated from human platelets; tissue MDS Pharma Services; host or cells: human platelets
Briefly: COX-1 enzyme assay (PGE2 enzyme immunoassay). Format: biochemical. The following applies: duplicate. On the procedure: as §1

Data set [5] relates to Mcl-1. Briefly: Mcl-1 level in LNCaP cells, SDS-PAGE immunoblot. The class given is cell-based. The following applies: for effect on the etodolac-induced fall in Mcl-1 levels: co-incubation with 5.0 μM MG-132 or pre-incubation with Z-VAD, LNCaP. (In general: Immunoblotting shows a protein as a band on a membrane.)
Data set [6] has as its system Bag-1. Briefly: Bag-1 level in LNCaP cells, SDS-PAGE immunoblot. The class given is cell-based. The conditions noted are these: co-incubation with 5.0 μM MG-132 or pre-incubation with Z-VAD.
Data set [7] concerns prostate cancer. The conditions noted are these: TRAMP mouse; cited from earlier work.
The subject of data set [8] is A549 (Lung). The data set is described as follows: Cytotoxicity by MTT assay, A549. The class given is cell-based. The following applies: three days continuous exposure.
Data set [9] relates to Alva-31 (Prostate). Briefly: Cytotoxicity by MTT assay, Alva-31. The class given is cell-based. The conditions noted are these: three days continuous exposure.
Data set [10] has as its system OVCAR-3 (Ovarian). The data set is described as follows: Cytotoxicity by MTT assay, OVCAR-3. Format: cell-based. The conditions noted are these: three days continuous exposure.
Data set [11] has as its system prostate cancer tissue. The data set is described as follows: Prostatectomy tissue samples incubated 72 hours, histology. The class given is cell-based. The source says: The tissues were next fixed in 4% paraformaldehyde in PBS, embedded in paraffin, sectioned and stained with hematoxylin and eosin.
The conditions of data set [12]: 200 mg dose, six elderly patients; cited from earlier work.
For data set [13], the system named is LNCaP-FGC (Prostate). Briefly: Cytotoxicity by MTT assay, LNCaP-FGC. The conditions noted are these: three days continuous exposure. The class given is cell-based.
In data set [14] the test system is HCT-116 (Colon). Briefly: Cytotoxicity by MTT assay, HCT-116. The following applies: three days continuous exposure. The class given is cell-based.
In data set [15] the test system is adjuvant polyarthritis. The following applies: reduction in paw volume, prostaglandin synthetase inhibitory activity; cited from earlier work.
In data set [16] the test system is PC-3 (Prostate). Briefly: Cytotoxicity by MTT assay, PC-3. The class given is cell-based. The following applies: three days continuous exposure.
Data set [17] has as its system CLL cells. The data set is described as follows: Viability of CLL cells, erythrocin B exclusion assay.
For data set [18], the system named is MDA-MB-231 (Breast). The data set is described as follows: Cytotoxicity by MTT assay, MDA-MB-231. The following applies: three days continuous exposure. The class given is cell-based.
Data set [19] concerns B-cell CLL cells. The following applies: cited from earlier work.

Residues, ends and D or L forms follow the SMILES beside them. *: point of attachment. Cbz = O=C(OCc1ccccc1)*; CH2F = FC*

T1 sequence (P35354 18-604): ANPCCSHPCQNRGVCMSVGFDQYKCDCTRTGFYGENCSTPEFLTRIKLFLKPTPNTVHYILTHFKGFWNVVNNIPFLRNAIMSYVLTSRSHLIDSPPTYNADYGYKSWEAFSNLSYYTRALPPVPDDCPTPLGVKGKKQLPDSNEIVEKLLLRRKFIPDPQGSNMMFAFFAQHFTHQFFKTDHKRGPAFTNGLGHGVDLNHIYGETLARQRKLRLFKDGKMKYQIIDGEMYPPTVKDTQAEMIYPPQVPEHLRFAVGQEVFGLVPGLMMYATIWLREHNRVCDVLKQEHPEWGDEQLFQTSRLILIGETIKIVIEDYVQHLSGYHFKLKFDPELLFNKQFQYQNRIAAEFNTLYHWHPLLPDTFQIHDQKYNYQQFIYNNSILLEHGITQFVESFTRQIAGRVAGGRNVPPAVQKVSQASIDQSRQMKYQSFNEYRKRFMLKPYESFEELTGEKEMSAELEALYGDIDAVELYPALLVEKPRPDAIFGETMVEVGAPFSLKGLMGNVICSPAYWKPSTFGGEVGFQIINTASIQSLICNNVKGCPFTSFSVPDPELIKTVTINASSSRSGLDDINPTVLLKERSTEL
T2 sequence (P23219 24-599): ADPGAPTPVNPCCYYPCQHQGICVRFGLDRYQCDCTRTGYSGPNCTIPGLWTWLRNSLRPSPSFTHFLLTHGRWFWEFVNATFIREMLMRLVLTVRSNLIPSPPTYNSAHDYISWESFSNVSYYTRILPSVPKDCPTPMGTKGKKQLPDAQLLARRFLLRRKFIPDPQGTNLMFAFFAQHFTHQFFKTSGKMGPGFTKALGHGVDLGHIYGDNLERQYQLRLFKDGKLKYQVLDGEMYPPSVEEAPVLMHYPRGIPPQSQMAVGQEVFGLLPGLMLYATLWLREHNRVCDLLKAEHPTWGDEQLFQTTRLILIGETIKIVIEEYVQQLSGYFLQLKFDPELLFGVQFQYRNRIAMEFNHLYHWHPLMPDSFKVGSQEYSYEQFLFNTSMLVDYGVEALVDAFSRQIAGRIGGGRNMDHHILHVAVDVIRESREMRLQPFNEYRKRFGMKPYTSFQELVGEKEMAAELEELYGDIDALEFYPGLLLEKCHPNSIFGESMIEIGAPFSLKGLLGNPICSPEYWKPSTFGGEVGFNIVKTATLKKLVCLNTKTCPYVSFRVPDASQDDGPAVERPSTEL

In [1], `CCc1cccc2c3c([nH]c12)C(CC)(CCO)OCC3` (stereo not shown) [Compound 1, 2-(1,8-Diethyl-1,3,4,9-tetrahydropyrano[3,4-b]indol-1-yl)-ethanol] had a 50% effective concentration (EC50) of 178 µM. Besides, in [2], the 50% cytotoxic concentration (CC50) at 48 h was about 500 µM. The inhibition at 50 µM in [3] and in data set [4] was 0% each time.

In data set [1], `CCc1cccc2c3c([nH]c12)C(CC)(CCOC)OCC3` (stereo not shown) [Compound 2, 1,8-Diethyl-1-(2-methoxyethyl)-1,3,4,9-tetrahydropyrano[3,4-b]indole] came in with an EC50 of over 1000 µM. Also, in data set [2], the 50% cytotoxic concentration (CC50) at 48 h was over 750 µM.

For `CCc1cccc2c3c([nH]c12)C(CC)(CCF)OCC3` (stereo not shown) [Compound 3, 1,8-Diethyl-1-(2-fluoroethyl)-1,3,4,9-tetrahydropyrano[3,4-b]indole], a half-maximal effect in data set [1] (EC50) was put at 767 µM. In data set [2], this compound came in with a CC50 at 48 h of under 100 µM.

In data set [1], `CCc1cccc2c3c([nH]c12)C(CC)(CCCl)OCC3` (stereo not shown) [Compound 4, 1-(2-Chloroethyl)-1,8-diethyl-1,3,4,9-tetrahydropyrano[3,4-b]indole] yielded a concentration for a half-maximal effect (EC50) of 572 µM. Further, the CC50 at 48 h in data set [2] was under 100 µM.

In turn, `CCc1cccc2c3c([nH]c12)C(CC)(CC)OCC3` [Compound 5, 1,1,8-Triethyl-1,3,4,9-tetrahydropyrano[3,4-b]indole] came in with a melting point of 133 to 134 °C. Further, the EC50 in data set [1] was over 1000 µM.

The compound `CCc1cccc2c3c([nH]c12)C(CC)(CC(N)=O)OCC3` (stereo not shown) [Compound 6, 2-(1,8-Diethyl-1,3,4,9-tetrahydropyrano[3,4-b]indol-1-yl)-acetamide] came in with a 50% effective concentration (EC50) in [1] of 258 µM. Moreover, the CC50 at 48 h in [2] was over 500 µM. The inhibition at 50 µM in data set [3] is 69%; in data set [4], 36%.

Consider `CCc1cccc2c3c([nH]c12)C(CC)(CC=N)OCC3` (stereo not shown) [Compound 7, 2-(1,8-Diethyl-1,3,4,9-tetrahydropyrano[3,4-b]indol-yl)-ethylideneamine], for which the response in data set [1] was half-maximal at 714 µM (EC50). The compound also showed a CC50 at 48 h in [2] of 250 to 500 µM.

In data set [1], `CCc1cccc2c3c([nH]c12)C(CC)(CC=O)OCC3` (stereo not shown) [Compound 8, (1,8-Diethyl-1,3,4,9-tetrahydropyrano[3,4-b]indol-1-yl)-acetaldehyde] displayed an EC50 of 111 µM. For the same compound, the CC50 at 48 h in data set [2] is under 100 µM.

Turning to `CCc1cccc2c3c([nH]c12)C(CC)(CCOCSC)OCC3` (stereo not shown) [Compound 9, 1,8-Diethyl-1-(2-methylsufanylmethoxyethyl)-1,3,4,9-tetrahydropyrano[3,4-b]indole], in data set [1], the EC50 was 324 µM.

Regarding `CCc1cccc2c3c([nH]c12)C(CC)(CCOC(C)=O)OCC3` (stereo not shown) [Compound 10, Acetic acid-2-(1,8-diethyl-1,3,4,9-tetrahydropyrano[3,4-b]indol-1-yl)-ethyl ester], the concentration for a half-maximal effect (EC50) in [1] was determined as 686 µM. In addition, the 50% cytotoxic concentration (CC50) at 48 h in data set [2] lay within 100 to 250 µM.

In turn, `CCc1cccc2c3c([nH]c12)C(CC)(CC(O)O)OCC3` (stereo not shown) [Compound 11, 2-(1,8-Diethyl-1,3,4,9-tetrahydropyrano[3,4-b]indol-1-yl)-ethane-1,1-diol] registered a melting point of 158 to 159 °C. The EC50 in [1] is 416 µM.

`CCc1cccc2c3c([nH]c12)C(CC)(CC(C)O)OCC3` (stereo not shown) [Compound 12, 1-(1,8-Diethyl-1,3,4,9-tetrahydropyrano[3,4-b]indol-1-yl)-propan-2-ol] gave a concentration for a half-maximal effect (EC50) in [1] of 272 µM. In data set [2], this compound came in with a half-maximal cytotoxic concentration (CC50) at 48 h of 250 to 500 µM.

As for `CCc1cccc2c3c([nH]c12)C(CC)(CC(C)=O)OCC3` (stereo not shown) [Compound 13, 1-(1,8-Diethyl-1,3,4,9-tetrahydropyrano[3,4-b]indol-1-yl)-propan-2-one], the EC50 in data set [1] is over 1000 µM. In [2], this compound returned a half-maximal cytotoxic concentration (CC50) at 48 h of over 750 µM.

`CC(C)C[C@@H](C=O)NC(=O)[C@H](CC(C)C)NC(=O)[C@H](CC(C)C)NC(=O)OCc1ccccc1` [MG-132] (Cbz-Leu-Leu-Leu-aldehyde): the “effect on the etodolac-induced fall in Mcl-1 levels” value in data set [5] is “prevented”. Further, the “effect on the etodolac-induced fall in Bag-1 levels” value in [6] was “prevented”.

Regarding `C[C@@H](C(=O)O)c1ccc(-c2ccccc2)c(F)c1` [R-flurbiprofen], the “progression of prostate cancer” value in data set [7] is “inhibited progression of prostate cancer”.

Regarding `CCc1cccc2c3c([nH]c12)[C@](CC)(CC(=O)O)OCC3` [S-etodolac], the 50% inhibitory concentration (IC50) is over 1000 µM in data set [8]; over 1000 µM in data set [9]; over 1000 µM in [10]; 220 ± 20 µM in [13]; 420 ± 50 µM in [14]; 800 µM in [16]. The compound also came in with an IC50 in [18] of over 1000 µM. For the same compound, in [11], the “activity in prostatectomy samples” value is “active”. Besides, the “maximum concentration relative to the R-enantiomer” value in [12] is given as 5 fold lower. Further, in data set [5], the “Mcl-1 degradation by the enantiomers” value is listed as “induced Mcl-1 degradation at equivalent concentrations”. Also, the anti-inflammatory activity entry in data set [15] is reported as “almost all of the anti-inflammatory activity of the racemate”. Also, the “toxicity of the enantiomers to CLL cells” value in data set [17] (RPMI 1640 with 10% autologous plasma, FIG. 5) is recorded as “equivalently cytotoxic”.

With `CC(NC(=O)C(NC(=O)OCc1ccccc1)C(C)C)C(=O)NC(CC(=O)O)C(=O)CF` (stereo not drawn) [Z-VAD] (Cbz-Val-Ala-Asp-CH2F; configuration not given here), the “effect on the etodolac-induced fall in Mcl-1 levels” value in [5] is “did not prevent”. Also, in data set [6], the “effect on the etodolac-induced fall in Bag-1 levels” value is recorded as “did not prevent”.

Turning to `CC(=O)Oc1ccccc1C(=O)O` [aspirin], the “viability of B-cell CLL cells in vitro” value in data set [19] is “reduced the viability”.

For the compound `Nc1nc(F)nc2c1ncn2[C@@H]1O[C@H](CO)[C@@H](O)[C@@H]1O` [fludarabine], the “cytotoxic effect on CLL cells, either drug alone” value in [17] (fludarabine 10 nM or etodolac 10 μM alone, 48 hours, FIG. 3) is on record as “ineffective”.

Turning to `O=C(O)c1ccccc1O` [salicylate], the “viability of B-cell CLL cells in vitro” value in data set [19] is given as “reduced the viability”.

Source of the values: patent US7361680B2, “Indole compounds useful for the treatment of cancer” (The Regents of the University of California, priority 1999, dated 2008).
